According to US8828954B2, “Use for scopolin and derivatives thereof” (Yonsei University Technology Holdings, Inc., priority 2010, dated 2014):
Marks after values point to notes of the source that are not given here.

What was measured:
[1] = test system: 3T3-L1 cells; test: Inhibition of adipocyte differentiation in 3T3-L1 cells (Oil Red O staining); format: cell-based, mouse; details: scopolin 0.1, 1, 10, 50 and 100 μM, 14 days, FIG. 1
Procedure: Mouse adipocyte cell line (3T3-L1) was used to investigate the effect of scopolin on differentiation and growth of adipocytes. The preadipocytes, 3T3-L1 cells, were seeded on a 12-well plate and cultured to confluency using Dulbecco's modified Eagle's medium (DMEM) containing 1% penicillin-streptomycin, 1% non-essential amino acid and 10% fatal bovine serum (FBS), in a 5% CO2 incubator at 37° C. The 3T3-L1 cells grown to confluency were cultured for 2 days in MDI medium containing 0.5 mM isobutylmethylxanthine, 1 μM dexamethasone and 1 μg/mL insulin to differentiate them into differention adipocytes. Then, the cells were further cultivated in DMEM containing 1 μg/mL insulin to differentiate them into mature adipocytes. The cells were further cultured for 10 more days while replacing DMEM every other day to obtain fully differentiated adipocytes.
From the first day when MDI was added to the 3T3-L1 cells, scopolin was treated at concentrations of 0.1, 1, 10, 50 and 100 μM with 2-day intervals. Scopolin was used after being dissolved in DMSO. Only DMSO was added to the negative control group. […] In order to measure the level of triglyceride contained in the differentiated 3T3-L1 cells, the stained lipid droplets were dissolved in 1 mL of isobutanol and optical density (OD) value was measured at 600 nm.

[2] = Body weight and visceral fat weight in high-fat diet fed mice, 10 weeks; format: in vivo, mouse; details: 0.02% scopolin in high-fat diet
Procedure: (§1) The obesity-inducing control diet used in the present test was high-fat diet (HFD: 40% fat calorie, 17 g lard+3% corn oil/100 g diet). Diets supplemented with scopolin had the same composition as HF, except that each derivative was included at 0.02%. The diabetic drug metformin was added at 0.1% or the hyperlipidemic drug atorvastatin was added at 0.01% to HFD as controls. The normal diet (ND) was prepared according to the AIN-76 rodent diet composition (American Institute of Nutrition, Report of the American Institute of Nutrition ad hoc committee on standards for nutritional studies. J. Nutr., 107: 1340-1348, (1977)) (Table 1).
(§2) 5-week-old male […] mice (Orient, Korea) were accustomed to the laboratory environment for 1 week while feeding solid feed. Then, they were randomly divided into high-fat diet and test groups and bred for a total of 10 weeks. The diet was given between 10 and 11 a.m. every day together with water. Food intake was measured every day and body weight was measured once a week. In order to avoid transient body weight increase after feed intake, body weight was measured 2 hours after removing the feed.
(§3) After fasting the test animal for at least 12 hours and anesthetizing with diethyl ether, blood, liver and visceral fat (epididymal fat, perirenal fat, mesenteric fat and retroperitoneal fat) were taken and weighed after washing with 0.1 M PBS (pH 7.4). Blood taken from the abdominal aorta was centrifuged at 1000×g for 15 minutes for the separation of plasma.

[3] = Plasma lipid and glucose levels in high-fat diet fed mice; format: in vivo, mouse; details: SPID group, 10 weeks
Procedure: as §1, §2, §3
(§4) After 10 weeks of breeding, total cholesterol, HDL-cholesterol, triglyceride and glucose levels in the plasma and lipid levels in the liver tissue were measured as follows: Total cholesterol, HDL-cholesterol, triglyceride, free fatty acid and glucose levels in the plasma were measured twice for each using a commercially available kit (Bio Clinical System). The level of LDL+VLDL in plasma was calculated by subtracting HDL level from the total cholesterol level. The activities of ALT (alanine aminotransferase) and AST (aspartate aminotransferase) used as liver function indicator were measured using a commercially available kit (Bio Clinical System, Korea).

[4] = Liver weight and liver tissue lipid levels in high-fat diet fed mice; format: in vivo, mouse; details: SPID group, 10 weeks
Procedure: as §1, §2, §3
In addition, lipids were extracted from the liver tissue according to Folch et al.'s method (Folch J, Lees M, Sloane Stanley G H. A simple method for the isolation and purification of total lipides from animal tissues. J Biol. Chem. 1957; 226:497-509). After adding 1 mL of distilled water to 0.25 g of the liver tissue, the liver tissue was homogenized using a Polytron homogenizer (IKA-Werke GmbH & Co., Ultra-Turrax, Staufen, Germany). After adding 5 mL of chloroform:methanol solution (2:1, v/v) to the homogenate and mixing well, the mixture was centrifuged at 1000×g for 10 minutes. After adding 2 mL of chloroform:methanol solution (2:1, v/v) again to the supernatant, the same procedure was repeated to completely separate the lipid components of the liver. After adding 3 mL of chloroform:methanol:0.05% CaCl2 (3:48:47, v/v/v) solution to the remaining pellets and mixing well for 1 minute, followed by centrifugation at 1000×g for 10 minutes, the resulting pellets were completely dried with nitrogen gas. The dried lipids were dissolved in 1 mL of methanol and then analyzed. The commercially available kits (Bio Clinical System, Korea) were used to measure the levels of triglyceride, cholesterol and free fatty acids of the liver tissue.

[5] = ALT and AST activities (liver function indicators) in high-fat diet fed mice; format: in vivo, mouse; details: SPID group, 10 weeks
Procedure: as §1, §2, §3, §4

[6] = test system: C/EBPα; test: RT-PCR of C/EBPα mRNA in epididymal fat tissue; format: in vivo, mouse; details: SPID vs HFD, relative to GAPDH, FIG. 4
Procedure: (§5) Accordingly, to identify that scopolin inhibits directly obesity-related gene expressions, the inventors examined whether obesity-related gene is expressed according to scopolin treatment through RNA was isolated from epididymal fat tissues obtained in the example 3 and performed RT-PCR.
(§6) First, after adding 1 mL of Trizol agent per 0.1 g of epididymal fat tissues, the mixture was homogenized and centrifuged at 12,000×g for 10 min at 4° C. The supernatant was transferred to a new tube and 200 μl of chloroform was added to the tube, followed by vortexing. The same procedure was repeated twice and then the supernatant was transferred to a new tube, followed by addition of isopropanol and the supernatant at 1:1 ratio. The mixture was vigorously shaken 10 times and then incubated for 10 min at room temperature, followed by centrifugation at 12,000×g for 10 min at 4° C. to remove the supernatant. After adding 1 mL of 70% ethanol to the remaining pellet, it was centrifuged at 7,500×g for 5 min at 4° C. After removing the ethanol, the RNA pellet contained in the tube was dried for 5 min at 4° C. and dissolved in nuclease-free water. The RNA concentration of sample was measured at a wavelength of 260 nm and 280 nm using a UV/VIS spectrophotometer (Beckman coulter, DU730) and the integrity of RNA sample was verified by agarose gel electrophoresis. […]

[7] = test system: PPARγ2; test: RT-PCR of PPARγ2 mRNA in epididymal fat tissue; format: in vivo, mouse; details: SPID vs HFD, relative to GAPDH, FIG. 4
Procedure: as §5, §6

[8] = test system: aP2; test: RT-PCR of aP2 mRNA in epididymal fat tissue; format: in vivo, mouse; details: SPID vs HFD, relative to GAPDH, FIG. 4
Procedure: as §5, §6

[9] = test system: UCP1; test: RT-PCR of UCP1 mRNA in epididymal fat tissue; format: in vivo, mouse; details: HFD-induced decrease, relative to GAPDH, FIG. 5
Procedure: as §5, §6

[10] = test system: UCP3; test: RT-PCR of UCP3 mRNA in epididymal fat tissue; format: in vivo, mouse; details: HFD-induced decrease, relative to GAPDH, FIG. 5
Procedure: as §5, §6

[11] = test system: mouse intraperitoneal macrophages; details: macrophages stimulated with ionophore; J Nat Prod 1996; cited from earlier work
[12] = target: acetylcholine esterase (Homo sapiens, UniProt P22303); details: J Med Chem 2004; cited from earlier work
acetylcholine esterase, sequence (P22303 32-614): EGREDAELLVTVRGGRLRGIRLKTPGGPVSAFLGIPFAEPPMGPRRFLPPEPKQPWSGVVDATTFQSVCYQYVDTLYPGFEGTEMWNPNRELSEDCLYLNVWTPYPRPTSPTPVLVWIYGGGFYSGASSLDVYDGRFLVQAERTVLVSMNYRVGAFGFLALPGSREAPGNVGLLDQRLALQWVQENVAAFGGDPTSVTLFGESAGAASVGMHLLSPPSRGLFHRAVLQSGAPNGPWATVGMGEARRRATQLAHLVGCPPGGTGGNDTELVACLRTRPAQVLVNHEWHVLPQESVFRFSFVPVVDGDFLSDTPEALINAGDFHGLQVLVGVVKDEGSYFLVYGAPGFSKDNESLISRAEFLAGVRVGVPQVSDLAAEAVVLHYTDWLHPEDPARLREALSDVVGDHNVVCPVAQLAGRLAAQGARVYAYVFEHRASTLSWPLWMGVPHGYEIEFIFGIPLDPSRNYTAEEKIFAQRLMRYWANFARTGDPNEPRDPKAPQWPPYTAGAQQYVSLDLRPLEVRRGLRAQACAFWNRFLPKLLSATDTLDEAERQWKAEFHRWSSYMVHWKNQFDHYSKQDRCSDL

Structure (SMILES): COc1cc2ccc(=O)oc2cc1OC1OC(CO)C(O)C(O)C1O [scopolin, 7-(beta-D-glucopyranosoyloxy)-6-methoxy-2H-1-benzopyran-2-one]
- differentiation of the preadipocytes (Oil Red O staining) [1]: reduced the differentiation of the preadipocytes in a concentration-dependent manner
- decrease of cumulative body weight gain as compared to HFD [2]: 22%
- decrease of final body weight as compared to HFD [2]: 10%
- reduction of epididymal fat-pad weight as compared to HFD [2]: 29%
- reduction of mesenteric fat-pad weight as compared to HFD [2]: 28%
- reduction of perirenal fat-pad weight as compared to HFD [2]: 33%
- reduction of retroperitoneal fat-pad weight as compared to HFD [2]: 31%
- reduction of total visceral fat weight as compared to HFD [2]: 30%
- lower plasma level of LDL+VLDL cholesterol as compared to HFD [3]: 30%
- lower plasma level of free fatty acid as compared to HFD [3]: 27%
- lower plasma level of total cholesterol as compared to HFD [3]: 23%
- lower plasma level of triglyceride as compared to HFD [3]: 28%
- reduction of the fasting blood sugar level as compared to HFD [3]: 16%
- Free fatty acid ([3]; plasma, mean±SEM, n=8): 635 ± 65.6^b μEq/g
- Total cholesterol ([3]; plasma, mean±SEM, n=8): 5.07 ± 0.26^b mmol/l
- Triglyceride ([3]; plasma, mean±SEM, n=8): 0.65 ± 0.07^b mmol/l
- LDL + VLDL cholesterol ([3]; plasma, total cholesterol minus HDL): 3.88 ± 0.27^b mmol/l
- Glucose ([3]; plasma, fasting, mean±SEM, n=8): 7.51 ± 0.32^b mmol/l
- decrease of cholesterol in liver tissue as compared to HFD [4]: 21%
- decrease of free fatty acid in liver tissue as compared to HFD [4]: 33%
- decrease of triglyceride in liver tissue as compared to HFD [4]: 22%
- reduction of absolute weight of liver as compared to HFD [4]: 23%
- Liver weight ([4]; mean±SEM, n=8): 1.7 ± 0.14^b g
- Cholesterol ([4]; liver tissue, mean±SEM, n=8): 102.9 ± 5.4^b μmol/g
- Free fatty acid ([4]; liver tissue, mean±SEM, n=8): 33.6 ± 4.6^b μEq/g
- Triglyceride ([4]; liver tissue, mean±SEM, n=8): 55.6 ± 5.3^b μmol/g
- decrease of plasma activity of ALT as compared to HFD [5]: 46%
- decrease of plasma activity of AST as compared to HFD [5]: 41%
- ALT (alanine aminotransferase) ([5]; plasma activity, mean±SEM, n=8): 5.55 ± 0.78^b IU/L
- AST (aspartate aminotransferase) ([5]; plasma activity, mean±SEM, n=8): 5.80 ± 0.43 IU/L
- C/EBPα mRNA expression level [6]: significantly reduced expressions
- PPARγ2 mRNA expression level [7]: significantly reduced expressions
- aP2 mRNA expression level [8]: significantly reduced expressions
- UCP1 mRNA expression level [9]: significantly reversed
- UCP3 mRNA expression level [10]: significantly reversed
- eicosanoid release [11]: suppression of eicosanoid release
- acetylcholine esterase inhibition [12]: inhibits acetylcholine esterase
